Results from PMC9013686, “Inter-individual variation in chlorpyrifos toxicokinetics characterized by physiologically based kinetic (PBK) and Monte Carlo simulation comparing human liver microsome and Supersome™ cytochromes P450 (CYP)-specific kinetic data as model input” (Archives of Toxicology, 2022).

How the values were obtained:
[1] = test system: RBC AChE; assay: PBK model-based reverse dosimetry and BMD analysis of RBC AChE inhibition; set-up: species or system human
Description: In the present study, PBK model-based reverse dosimetry was applied to translate the in vitro rhAChE inhibition concentration–response curve into in vivo RBC AChE inhibition dose–response curves first for the average adult population.
The external dose values thus obtained together with corresponding inhibitory effects were used to construct RBC AChE inhibition dose–response curves for the average population.
A BMD analysis was performed to derive a POD from the predicted in vivo dose–response curves obtained for the average population. In the present study, the BMDL10 values were used as POD based on the fact that the United States Environmental Protection Agency (USEPA) also used a 10% effect level to define a health based guidance value (USEPA [2011], [2014]). BMD analysis was carried out using the Benchmark Dose Software version 3.1.2 (USEPA [2019]), with exponential or hill models because of their adequacy in predicting continuous data. The BMDL10 value with the lowest AIC was chosen and further evaluated by comparing the obtained values with reported BMDL10 by USEPA ([2011], [2014]).

[2] = test system: CYP1A2, CYP2B6, CYP2C19 and CYP3A4; assay: Summed Supersome CYP kinetics scaled to whole liver; assay type: in vitro ADME, human
Description: The in vivo Kmi values were assumed to be equal to the apparent Kmi(app) values (µM) obtained in the in vitro incubations, while the in vivo Vmaxi for each CYP isoform was derived from their corresponding apparent CYP isoform Vmaxi(app) (pmol/min/pmolCYP) using Eq. 3:3 Vmaxi=Vmaxiapp×CYPiabundance×ISEF×60×MPL×1000×VL/1,000,000,
To gain a better insight in the contribution of each CYP to the metabolism of CPF in vivo at different concentrations of CPF, the apparent Supersome™ kinetic data were scaled toward the whole liver according to Eq. 3.
To evaluate the performance of the Supersomes™ together with the ISEF to predict the bioactivation of CPF, the sum of the scaled CE of the four individual Supersomes™ was compared to the CE obtained for the pooled HLMs (for both non-biphasic and biphasic scenarios).

[3] = target: T1, CYP1A2 (Homo sapiens, UniProt P05177); settings: bioactivation of CPF, ref Foxenberg et al. [2007]; cited from earlier work
T1 sequence (P05177 2-516 limits assumed): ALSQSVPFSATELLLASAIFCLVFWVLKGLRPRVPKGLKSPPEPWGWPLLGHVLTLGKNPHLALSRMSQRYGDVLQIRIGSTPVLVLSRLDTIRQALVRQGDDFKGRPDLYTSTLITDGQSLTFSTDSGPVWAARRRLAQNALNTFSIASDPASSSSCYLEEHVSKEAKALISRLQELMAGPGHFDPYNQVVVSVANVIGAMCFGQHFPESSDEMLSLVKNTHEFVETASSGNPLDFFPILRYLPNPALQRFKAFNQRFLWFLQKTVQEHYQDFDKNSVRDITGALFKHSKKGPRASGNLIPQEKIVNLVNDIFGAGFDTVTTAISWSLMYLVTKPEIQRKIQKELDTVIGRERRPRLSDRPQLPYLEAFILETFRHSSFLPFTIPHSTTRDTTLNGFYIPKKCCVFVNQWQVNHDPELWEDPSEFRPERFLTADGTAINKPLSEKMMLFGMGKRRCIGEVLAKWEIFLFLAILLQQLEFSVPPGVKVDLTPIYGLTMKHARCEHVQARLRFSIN

[4] = test system: rat liver microsomes; settings: bioactivation of CPF, biphasic kinetics; ref Ma and Chambers ([1995]); cited from earlier work

Compound: CCOP(=S)(OCC)Oc1nc(Cl)c(Cl)cc1Cl [CPF, Chlorpyrifos]
- predicted BMDL10 lower than reported human model-derived BMDL10 ([1]; HLM-based biphasic PBK model versus USEPA [2014]): 1.8 fold
- predicted BMDL10 lower than reported human model-derived BMDL10 ([1]; Supersome-based PBK model versus USEPA [2014]): 1.9 fold
- BMDL10 of HLM-based approach with biphasic kinetics versus HLM-based approach without high affinity component ([1]; average population): sixfold lower
- difference in BMDL10 between HLM-based (biphasic) and Supersome-based PBK model ([1]; average population): 1.04 fold
- predicted BMDL10 higher than reported human model-derived BMDL10 ([1]; non-biphasic HLM-based PBK model versus USEPA [2014]): 3.3 fold
- summed scaled CE of Supersomes ([2]; bioactivation of CPF, sum of four individual Supersomes): 1578 L/h
- overall extrapolated Vmax from Supersome data versus HLM-derived Vmax ([2]; high affinity component): 1.9 fold
- overall extrapolated Vmax from Supersome data versus HLM-derived Vmax ([2]; low affinity component): 0.9 fold
- Km [3]: 0.38 µM
- Km of high affinity phase lower than that of low affinity phase [4]: 50 fold
